Data taken from patent publication US4968494A, “Methods and compositions for thrombolytic therapy” (Merck & Co., Inc., priority 1990, dated 1990).

Legend:
Factor XIIIa = target: T1, Factor XIIIa (Homo sapiens, UniProt P00488); test: Factor XIIIa inhibitor assay (incorporation of ^14 C-putrescine into casein catalyzed by Factor XIIIa); type: biochemical; conditions: read-out: Percent Inhibition
T1 construct: from tissue; host or cells: human plasma
T1 sequence (P00488 39-732 limits assumed): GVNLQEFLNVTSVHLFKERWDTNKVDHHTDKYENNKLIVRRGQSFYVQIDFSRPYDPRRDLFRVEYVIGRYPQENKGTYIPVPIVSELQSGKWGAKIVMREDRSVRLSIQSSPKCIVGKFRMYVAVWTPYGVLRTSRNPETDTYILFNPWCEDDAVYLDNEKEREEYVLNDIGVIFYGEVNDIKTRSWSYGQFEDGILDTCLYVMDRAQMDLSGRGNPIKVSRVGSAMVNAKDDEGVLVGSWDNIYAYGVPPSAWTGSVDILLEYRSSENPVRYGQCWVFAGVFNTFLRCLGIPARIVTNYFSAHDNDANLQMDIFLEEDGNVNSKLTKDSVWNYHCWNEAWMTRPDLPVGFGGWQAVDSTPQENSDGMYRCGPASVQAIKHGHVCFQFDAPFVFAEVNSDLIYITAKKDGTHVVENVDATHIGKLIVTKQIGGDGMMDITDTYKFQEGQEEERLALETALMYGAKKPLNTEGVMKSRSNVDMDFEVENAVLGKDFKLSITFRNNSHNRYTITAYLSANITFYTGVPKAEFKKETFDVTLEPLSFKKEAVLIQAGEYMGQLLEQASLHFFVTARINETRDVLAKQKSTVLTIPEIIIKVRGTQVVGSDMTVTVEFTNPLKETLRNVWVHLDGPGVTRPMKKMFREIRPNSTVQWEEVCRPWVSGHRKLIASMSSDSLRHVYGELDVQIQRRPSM
Procedure: The Factor XIIIa inhibitor assay is based on the incorporation of ^14 C-putrescine into casein catalyzed by Factor XIIIa. The assay is carried out employing the procedure described in Methods in Enzymology, Vol. 45, Ch 15., pages 177-191 (1976) and using Factor XIII (F XIII) isolated from human plasma. The procedure is summarized briefly and schematically illustrated as follows: [drawing 16]
Factor XIII assay mixtures are prepared by adding stepwise, appropriate prepared solutions of thrombin and dithiothreitol (DTT) to a mixture comprising Factor XIII in glycerol/water and tris(hydroxymethyl)aminomethane hydrochloride (Tris.cndot.HCl). To a portion of the mixture is added calcium chloride as source of calcium ions required for enzyme activity and to the remaining mixture is added instead of calcium ions ethylenediaminetetracetic acid (EDTA) which serves as a blank for background.
A substrate mixture is prepared from ^14 C-putrescine and […].
The assay tubes and control tubes are charged with the substrate mixture and incubated at 37° C. for 220 minutes. Samples are withdrawn from each tube, spotted onto a filter disk which is then immersed in ice cold trichloroacetic acid solution to precipitate the casein on the filter. The filter is then washed to remove unincorporated or free ^14 C-putrescine and after drying is counted for ^14 C-putrescine incorporated to casein from which percent activity and/or inhibition can be calculated.

blood clots = test: in vitro clot lysis assay (TPA-catalyzed lysis of ^125 I-fibrin labelled clot); type: biochemical; conditions: 200 μM cerulenin, buffer pH 7.5
Procedure: In the assay, whole blood or plasma is charged with ^125 I-fibrinogen. Thrombin is added to initiate clot formation and subsequently incubated for 2 hours to complete the cross-linking by endogenous Factor XIII. Factor XIIIa inhibitor is added prior to clot initiation or at various times during the 2-hour incubation. At the end of this period, the labelled clot is washed and lysis is initiated by exogenous tissue plasminogen activator (TPA). Exogenous plasminogen is employed in some experiments. Endogenous plasminogen is used for others. Clot dissolution as a function of time is monitored by the release of solubilized ^125 I-fibrin-derived fragments.
In FIGS. 1 and 2, the open symbols indicate absence of cerulenin and the closed symbols indicate the presence of 200μM cerulenin at the time of clot formation. Clot lysis is conducted in buffer, pH 7.5; 5 ng/mL TPA represents approximate physiologic concentration. 50 to […] represents pharmacologic concentration range. […] FIG. 2 studies employed glu-plasminogen levels at approximately 10 percent physiologic level (12μ/mL)

| inhibition at 13 µM (Factor XIIIa; 1.3 × 10^-5 M) [%] | inhibition at 1.5 µM (Factor XIIIa; 1.5 × 10^-6 M) [%] | inhibition at 0.17 µM (Factor XIIIa; 1.7 × 10^-7 M) [%] | inhibition at 4.5 µM (Factor XIIIa; 4.5 × 10^-6 M) [%] | inhibition at 0.5 µM (Factor XIIIa; 5 × 10^-7 M) [%] | inhibition at 62 µM (Factor XIIIa; 6.2 × 10^-5 M) [%] | inhibition at 6.2 µM (Factor XIIIa; 6.2 × 10^-6 M) [%] | inhibition at 0.62 µM (Factor XIIIa; 6.2 × 10^-7 M) [%] | Structure (SMILES) | lysis rates (blood clots; 12 μg/mL exogenous glu-plasminogen, TPA, FIG. 2) | rates and extents of lysis (blood clots; no exogenous plasminogen, physiological and pharmacological levels of TPA, FIG. 1) |
| --- | --- | --- | --- | --- | --- | --- | --- | --- | --- | --- |
| 91 | 52 | 9 | 78 | 19 |  |  |  | O=C(O)C=Cc1nc2ccccc2[nH]1 [3-(Benzimidazol-2-yl)-acrylic acid, 3-(benzimidazol-2-yl)acrylic acid] |  |  |
|  |  |  |  |  | 100 | 64 | 22 | C/C=C/C/C=C/CCC(=O)[C@H]1O[C@H]1C(N)=O [Cerulenin, (2R,3S)-2,3-epoxy-4-oxo-7E,10E-dodecadienamide] | lysis rates were further enhanced | enhanced rates and extents of lysis |
